In US9340590B2 (priority 2011, dated 2016):
Like-named read-outs stand apart in the source and are kept apart here. Positions of bridges follow the written chain, without caps; N, C: chain ends. Non-standard residues stand in square brackets, D forms with d. Residues, ends and D or L forms follow the SMILES beside them. Phe(4-I) = N[C@@H](Cc1ccc(I)cc1)C(=O)O; 2Thi = N[C@@H](Cc1cccs1)C(=O)O

Assays:
Assay in all cases: cell-based
hNav1.7 = hNav1.7 (Homo sapiens, UniProt Q15858); assay type: cell-based
hNav1.5 = hNav1.5 (Homo sapiens, UniProt Q14524); conditions: IonWorks Quattro, read-out: IWQ Use Nav1.5
hNav1.3 = hNav1.3 (Homo sapiens, UniProt Q9NY46); conditions: IonWorks Quattro, read-out: IWQ Use Nav1.3
[1] = IonWorks Quattro, use-dependent block, hNav1.7, read-out: IWQ Use Nav1.7

Sequence of hNav1.7 (Q15858 whole entry, looked up): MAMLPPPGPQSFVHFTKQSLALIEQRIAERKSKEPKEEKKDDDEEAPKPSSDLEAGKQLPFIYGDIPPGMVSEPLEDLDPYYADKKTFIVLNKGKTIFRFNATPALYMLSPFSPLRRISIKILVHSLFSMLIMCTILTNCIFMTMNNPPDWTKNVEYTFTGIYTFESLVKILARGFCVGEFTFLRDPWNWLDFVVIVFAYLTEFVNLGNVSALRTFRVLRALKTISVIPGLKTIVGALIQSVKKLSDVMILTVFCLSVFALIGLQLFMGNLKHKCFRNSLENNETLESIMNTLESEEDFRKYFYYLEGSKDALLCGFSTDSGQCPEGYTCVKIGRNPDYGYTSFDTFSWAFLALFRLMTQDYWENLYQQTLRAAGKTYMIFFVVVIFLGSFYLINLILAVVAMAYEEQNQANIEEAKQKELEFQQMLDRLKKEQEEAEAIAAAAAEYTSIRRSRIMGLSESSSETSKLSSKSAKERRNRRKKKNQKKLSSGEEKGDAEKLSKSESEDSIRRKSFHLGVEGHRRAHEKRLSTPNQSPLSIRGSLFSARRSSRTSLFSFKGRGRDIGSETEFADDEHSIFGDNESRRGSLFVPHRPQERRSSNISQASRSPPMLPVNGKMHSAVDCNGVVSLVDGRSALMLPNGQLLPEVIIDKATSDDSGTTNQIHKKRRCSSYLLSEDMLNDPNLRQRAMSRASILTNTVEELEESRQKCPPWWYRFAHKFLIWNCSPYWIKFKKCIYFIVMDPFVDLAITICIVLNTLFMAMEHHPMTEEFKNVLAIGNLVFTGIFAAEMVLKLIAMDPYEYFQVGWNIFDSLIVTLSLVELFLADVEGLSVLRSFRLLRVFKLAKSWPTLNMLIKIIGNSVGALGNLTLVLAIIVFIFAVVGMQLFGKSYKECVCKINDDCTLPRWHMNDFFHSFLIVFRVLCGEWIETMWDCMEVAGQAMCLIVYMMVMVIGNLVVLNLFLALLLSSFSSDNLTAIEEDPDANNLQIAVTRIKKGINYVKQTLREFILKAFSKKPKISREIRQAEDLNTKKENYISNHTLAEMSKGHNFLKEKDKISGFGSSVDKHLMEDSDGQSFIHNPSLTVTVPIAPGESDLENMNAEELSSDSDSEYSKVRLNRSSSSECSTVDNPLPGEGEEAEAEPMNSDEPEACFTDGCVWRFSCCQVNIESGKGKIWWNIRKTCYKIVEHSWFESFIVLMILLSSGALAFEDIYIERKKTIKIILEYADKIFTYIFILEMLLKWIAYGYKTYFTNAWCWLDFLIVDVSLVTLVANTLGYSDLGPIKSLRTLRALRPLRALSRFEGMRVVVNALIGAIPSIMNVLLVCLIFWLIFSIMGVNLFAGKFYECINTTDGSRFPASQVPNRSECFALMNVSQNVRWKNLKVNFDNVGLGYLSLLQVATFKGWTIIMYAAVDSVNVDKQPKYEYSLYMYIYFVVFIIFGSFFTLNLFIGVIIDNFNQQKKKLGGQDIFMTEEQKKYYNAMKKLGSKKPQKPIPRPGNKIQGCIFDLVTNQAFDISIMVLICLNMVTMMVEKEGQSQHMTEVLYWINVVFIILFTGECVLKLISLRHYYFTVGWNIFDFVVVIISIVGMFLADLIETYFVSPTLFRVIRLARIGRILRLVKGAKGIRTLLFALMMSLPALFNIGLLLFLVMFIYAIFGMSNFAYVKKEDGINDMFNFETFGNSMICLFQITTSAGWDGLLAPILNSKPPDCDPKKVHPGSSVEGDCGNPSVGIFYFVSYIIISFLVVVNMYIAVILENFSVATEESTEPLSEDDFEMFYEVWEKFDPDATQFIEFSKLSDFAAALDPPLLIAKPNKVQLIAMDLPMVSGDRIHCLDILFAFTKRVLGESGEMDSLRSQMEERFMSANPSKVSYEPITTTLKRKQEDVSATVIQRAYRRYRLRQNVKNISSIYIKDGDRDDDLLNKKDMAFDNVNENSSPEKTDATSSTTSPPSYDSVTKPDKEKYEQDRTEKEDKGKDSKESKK
Sequence of hNav1.3 (Q9NY46 whole entry, looked up): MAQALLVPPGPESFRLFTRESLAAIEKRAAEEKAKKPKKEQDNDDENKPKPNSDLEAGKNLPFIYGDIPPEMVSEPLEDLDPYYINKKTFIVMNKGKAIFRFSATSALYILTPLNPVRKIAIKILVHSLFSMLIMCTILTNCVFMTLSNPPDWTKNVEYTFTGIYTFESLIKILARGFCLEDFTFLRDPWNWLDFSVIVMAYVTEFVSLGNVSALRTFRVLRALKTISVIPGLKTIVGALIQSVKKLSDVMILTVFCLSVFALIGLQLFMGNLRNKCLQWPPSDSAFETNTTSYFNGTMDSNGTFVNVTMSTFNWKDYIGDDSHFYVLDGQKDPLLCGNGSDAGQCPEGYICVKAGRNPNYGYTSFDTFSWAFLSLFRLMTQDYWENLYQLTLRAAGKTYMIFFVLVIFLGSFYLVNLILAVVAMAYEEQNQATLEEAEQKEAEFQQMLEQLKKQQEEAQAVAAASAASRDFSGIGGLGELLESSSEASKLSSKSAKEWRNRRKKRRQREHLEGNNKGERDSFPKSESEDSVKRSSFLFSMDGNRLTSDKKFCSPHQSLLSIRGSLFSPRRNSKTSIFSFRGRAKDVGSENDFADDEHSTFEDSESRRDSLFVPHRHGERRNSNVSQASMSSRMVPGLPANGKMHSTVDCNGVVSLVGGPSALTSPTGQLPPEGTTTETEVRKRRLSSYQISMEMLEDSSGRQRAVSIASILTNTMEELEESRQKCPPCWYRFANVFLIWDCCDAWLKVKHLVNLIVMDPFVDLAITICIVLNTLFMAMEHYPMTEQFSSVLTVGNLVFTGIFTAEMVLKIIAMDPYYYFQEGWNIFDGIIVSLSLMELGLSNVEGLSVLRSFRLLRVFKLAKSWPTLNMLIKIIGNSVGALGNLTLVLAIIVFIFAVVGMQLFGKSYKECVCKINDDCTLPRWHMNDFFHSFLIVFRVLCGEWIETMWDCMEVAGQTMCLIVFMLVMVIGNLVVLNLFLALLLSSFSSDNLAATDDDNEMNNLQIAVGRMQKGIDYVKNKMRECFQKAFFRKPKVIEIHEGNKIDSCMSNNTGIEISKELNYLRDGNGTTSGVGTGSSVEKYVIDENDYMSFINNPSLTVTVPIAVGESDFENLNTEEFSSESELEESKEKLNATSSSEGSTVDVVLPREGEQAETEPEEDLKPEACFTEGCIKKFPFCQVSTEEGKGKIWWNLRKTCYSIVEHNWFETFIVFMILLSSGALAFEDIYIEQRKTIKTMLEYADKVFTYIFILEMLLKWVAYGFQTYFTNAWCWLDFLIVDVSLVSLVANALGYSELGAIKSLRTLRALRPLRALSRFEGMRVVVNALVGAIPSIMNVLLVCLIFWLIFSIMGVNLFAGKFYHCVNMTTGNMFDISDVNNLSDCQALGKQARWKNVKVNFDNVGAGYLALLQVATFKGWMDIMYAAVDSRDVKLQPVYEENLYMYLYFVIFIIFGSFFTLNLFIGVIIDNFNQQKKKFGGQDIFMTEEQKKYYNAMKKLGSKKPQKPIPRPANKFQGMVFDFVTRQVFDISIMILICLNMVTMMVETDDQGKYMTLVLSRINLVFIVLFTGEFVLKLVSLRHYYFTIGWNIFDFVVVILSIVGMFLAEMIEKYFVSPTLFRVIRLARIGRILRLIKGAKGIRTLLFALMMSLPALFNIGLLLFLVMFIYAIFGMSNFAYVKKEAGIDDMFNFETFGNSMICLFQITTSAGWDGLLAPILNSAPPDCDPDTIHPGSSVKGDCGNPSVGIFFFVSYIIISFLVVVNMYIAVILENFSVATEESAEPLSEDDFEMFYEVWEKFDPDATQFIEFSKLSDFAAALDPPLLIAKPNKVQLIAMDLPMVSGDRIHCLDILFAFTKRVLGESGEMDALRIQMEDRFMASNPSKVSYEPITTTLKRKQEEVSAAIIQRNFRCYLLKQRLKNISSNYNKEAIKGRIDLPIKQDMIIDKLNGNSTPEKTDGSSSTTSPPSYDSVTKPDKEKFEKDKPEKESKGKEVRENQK

CC[C@H](C)[C@@H]1NC(=O)[C@@H]2CSSC[C@@H]3NC(=O)[C@H](C(C)C)NC(=O)[C@H](CC(C)C)NC(=O)[C@H](CC(N)=O)NC(=O)[C@@H]4CCCN4C(=O)[C@H](CCCNC(=N)N)NC(=O)[C@H](CSSC[C@H](NC(=O)[C@@H](N)CC(=O)O)C(=O)N[C@@H](CC(C)C)C(=O)NCC(=O)N[C@@H](Cc4cccs4)C(=O)N[C@@H](Cc4ccccc4)C(=O)N[C@@H](CCCNC(=N)N)C(=O)N[C@@H](CCCCN)C(=O)N2)NC(=O)[C@H](CSSC[C@@H](C(=O)N[C@@H](CCCCN)C(=O)N[C@@H](Cc2ccc(O)cc2)C(=O)N[C@H](C(=O)N[C@@H](Cc2ccccc2)C(N)=O)C(C)C)NC(=O)[C@H](Cc2c[nH]c4ccccc24)NC(=O)[C@H](CCCCN)NC(=O)[C@H](Cc2c[nH]cn2)NC(=O)[C@H]([C@@H](C)O)NC(=O)[C@H](CCCNC(=N)N)NC(=O)[C@H](CO)NC3=O)NC(=O)[C@H](CCCCN)NC(=O)[C@H](CC(=O)O)NC(=O)[C@H](CC(N)=O)NC(=O)[C@H](CC(=O)O)NC(=O)[C@@H]2CCCN2C1=O [compound 614] (H-DCLG[2Thi]FRKCIPDNDKCCRPNLVCSRTHKWCKYVF-NH2; disulfide 2-17, 9-23, 16-30)
IC50 (hNav1.7; [1]): 12 nM
IC50 (hNav1.5; use-dependent block, hNav1.5): 4100 nM
IC50 (hNav1.3; use-dependent block, hNav1.3): 77 nM

CC[C@H](C)[C@@H]1NC(=O)[C@@H]2CSSC[C@@H]3NC(=O)[C@H](C(C)C)NC(=O)[C@H](CC(C)C)NC(=O)[C@H](CC(N)=O)NC(=O)[C@@H]4CCCN4C(=O)[C@H](CCCNC(=N)N)NC(=O)[C@H](CSSC[C@H](NC(=O)[C@@H](N)CC(=O)O)C(=O)N[C@@H](CC(C)C)C(=O)NCC(=O)N[C@@H](Cc4ccc(I)cc4)C(=O)N[C@@H](CC(C)C)C(=O)N[C@@H](CCCNC(=N)N)C(=O)N[C@@H](CCCCN)C(=O)N2)NC(=O)[C@H](CSSC[C@@H](C(=O)N[C@@H](CCCCN)C(=O)N[C@@H](Cc2ccc(O)cc2)C(=O)N[C@H](C(=O)N[C@@H](Cc2ccccc2)C(N)=O)C(C)C)NC(=O)[C@H](Cc2c[nH]c4ccccc24)NC(=O)[C@H](CCCCN)NC(=O)[C@H](Cc2c[nH]cn2)NC(=O)[C@H]([C@@H](C)O)NC(=O)[C@H](CCCNC(=N)N)NC(=O)[C@H](CO)NC3=O)NC(=O)[C@H](CCCCN)NC(=O)[C@H](CC(=O)O)NC(=O)[C@H](CC(N)=O)NC(=O)[C@H](CC(=O)O)NC(=O)[C@@H]2CCCN2C1=O [compound 667]
IC50 (hNav1.7; IonWorks Quattro, use-dependent protocol, hNav1.7, read-out: IWQ Use Nav1.7): 120 nM
IC50 (hNav1.5; use-dependent protocol, hNav1.5): > 5000 nM
IC50 (hNav1.3; use-dependent protocol, hNav1.3): 17 nM

CC[C@H](C)[C@@H]1NC(=O)[C@@H]2CSSC[C@@H]3NC(=O)[C@H](C(C)C)NC(=O)[C@H](CC(C)C)NC(=O)CNC(=O)[C@@H]4CCCN4C(=O)[C@H](CCCNC(=N)N)NC(=O)[C@H](CSSC[C@H](NC(=O)[C@@H](N)CC(=O)O)C(=O)N[C@@H](CC(C)C)C(=O)NCC(=O)N[C@@H](Cc4ccccc4)C(=O)N[C@@H](CCSC)C(=O)N[C@@H](CCCNC(=N)N)C(=O)N[C@@H](CCCCN)C(=O)N2)NC(=O)[C@H](CSSC[C@@H](C(=O)N[C@@H](CCCCN)C(=O)N[C@@H](Cc2ccc(O)cc2)C(=O)N[C@H](C(=O)N[C@@H](Cc2ccccc2)C(N)=O)C(C)C)NC(=O)[C@H](Cc2c[nH]c4ccccc24)NC(=O)[C@H](CCCCN)NC(=O)[C@H](Cc2c[nH]cn2)NC(=O)[C@H]([C@@H](C)O)NC(=O)[C@H](CCCNC(=N)N)NC(=O)[C@H](CO)NC3=O)NC(=O)[C@H](CCCCN)NC(=O)[C@H](CC(=O)O)NC(=O)[C@H](CC(N)=O)NC(=O)[C@H](CC(=O)O)NC(=O)[C@@H]2CCCN2C1=O [compound 198] (H-DCLGFMRKCIPDNDKCCRPGLVCSRTHKWCKYVF-NH2; disulfide 2-17, 9-23, 16-30)
IC50 (hNav1.7; IonWorks Quattro, Use, read-out: IWQ Use Nav1.7): 229 nM
IC50 (hNav1.5; Use): 9750 nM
IC50 (hNav1.3; Use): 126 nM

CC[C@H](C)[C@@H]1NC(=O)[C@@H]2CSSC[C@@H]3NC(=O)[C@H](C(C)C)NC(=O)[C@H](CC(C)C)NC(=O)[C@H](CC(N)=O)NC(=O)[C@@H]4CCCN4C(=O)[C@H](CCCNC(=N)N)NC(=O)[C@H](CSSC[C@H](NC(=O)[C@@H](N)CC(=O)O)C(=O)N[C@@H](CC(C)C)C(=O)NCC(=O)N[C@@H](C)C(=O)N[C@@H](CCSC)C(=O)N[C@@H](CCCNC(=N)N)C(=O)N[C@@H](CCCCN)C(=O)N2)NC(=O)[C@H](CSSC[C@@H](C(=O)N[C@@H](CCCCN)C(=O)N[C@@H](Cc2ccc(O)cc2)C(=O)N[C@H](C(=O)N[C@@H](Cc2ccccc2)C(N)=O)C(C)C)NC(=O)[C@H](Cc2c[nH]c4ccccc24)NC(=O)[C@H](CCCCNC(C)=O)NC(=O)[C@H](Cc2c[nH]cn2)NC(=O)[C@H]([C@@H](C)O)NC(=O)[C@H](CCCNC(=N)N)NC(=O)[C@H](CO)NC3=O)NC(=O)[C@H](CCCCN)NC(=O)[C@H](CC(=O)O)NC(=O)[C@H](CC(N)=O)NC(=O)[C@H](CC(=O)O)NC(=O)[C@@H]2CCCN2C1=O [compound 742] (H-DCLGAMRKCIPDNDKCCRPNLVCSRTHK(Ac)WCKYVF-NH2; disulfide 2-17, 9-23, 16-30)
IC50 (hNav1.7; [1]): 1100 nM
IC50 (hNav1.5; use-dependent block, hNav1.5): 22700 nM
IC50 (hNav1.3; use-dependent block, hNav1.3): 2500 nM

CC[C@H](C)[C@@H]1NC(=O)[C@@H]2CSSC[C@@H]3NC(=O)[C@H](C(C)C)NC(=O)[C@H](CC(C)C)NC(=O)[C@H](CC(N)=O)NC(=O)[C@@H]4CCCN4C(=O)[C@H](CCCNC(=N)N)NC(=O)[C@H](CSSC[C@H](NC(=O)[C@@H](N)CC(=O)O)C(=O)N[C@@H](CC(C)C)C(=O)NCC(=O)N[C@@H](C)C(=O)N[C@@H](Cc4ccccc4)C(=O)N[C@@H](CCCNC(=N)N)C(=O)N[C@@H](CCCCN)C(=O)N2)NC(=O)[C@H](CSSC[C@@H](C(=O)N[C@@H](CCCCN)C(=O)N[C@@H](Cc2ccc(O)cc2)C(=O)N[C@H](C(=O)N[C@@H](Cc2ccccc2)C(=O)N[C@@H](Cc2c[nH]c4ccccc24)C(=O)O)C(C)C)NC(=O)[C@H](Cc2c[nH]c4ccccc24)NC(=O)[C@H](CCCNC(=N)N)NC(=O)[C@H](Cc2c[nH]cn2)NC(=O)[C@H]([C@@H](C)O)NC(=O)[C@H](CCCNC(=N)N)NC(=O)[C@H](CO)NC3=O)NC(=O)[C@H](CCCCN)NC(=O)[C@H](CC(=O)O)NC(=O)[C@H](CC(N)=O)NC(=O)[C@H](CC(=O)O)NC(=O)[C@@H]2CCCN2C1=O [compound 813] (H-DCLGAFRKCIPDNDKCCRPNLVCSRTHRWCKYVFW-OH; disulfide 2-17, 9-23, 16-30)
IC50 (hNav1.7; [1]): > 5000 nM
IC50 (hNav1.5; use-dependent block, hNav1.5): > 5000 nM
IC50 (hNav1.3; use-dependent block, hNav1.3): > 5000 nM

CC[C@H](C)[C@@H]1NC(=O)[C@@H]2CSSC[C@@H]3NC(=O)[C@H](C(C)C)NC(=O)[C@H](CC(C)C)NC(=O)[C@H](CC(N)=O)NC(=O)[C@@H]4CCCN4C(=O)[C@H](CCCNC(=N)N)NC(=O)[C@H](CSSC[C@H](NC(=O)[C@@H](N)CC(=O)O)C(=O)N[C@@H](CC(C)C)C(=O)NCC(=O)N[C@@H](Cc4ccccc4)C(=O)N[C@@H](CCSC)C(=O)N[C@@H](CCCNC(=N)N)C(=O)N[C@@H](CCCCN)C(=O)N2)NC(=O)[C@H](CSSC[C@@H](C(=O)N[C@@H](CCCCN)C(=O)N[C@@H](Cc2ccc(O)cc2)C(=O)N[C@@H](Cc2ccc(I)cc2)C(=O)N[C@@H](Cc2ccccc2)C(N)=O)NC(=O)[C@H](Cc2c[nH]c4ccccc24)NC(=O)[C@H](CCCCN)NC(=O)[C@H](Cc2c[nH]cn2)NC(=O)[C@H]([C@@H](C)O)NC(=O)[C@H](CCCNC(=N)N)NC(=O)[C@H](CO)NC3=O)NC(=O)[C@H](CCCCN)NC(=O)[C@H](CC(=O)O)NC(=O)[C@H](CC(N)=O)NC(=O)[C@H](CC(=O)O)NC(=O)[C@@H]2CCCN2C1=O [compound 249] (H-DCLGFMRKCIPDNDKCCRPNLVCSRTHKWCKY[Phe(4-I)]F-NH2; disulfide 2-17, 9-23, 16-30)
IC50 (hNav1.7; Table 26, IonWorks Quattro, use, […], read-out: IWQ Use Nav1.7): 90 nM
IC50 (hNav1.5; Table 26, use, […]): 7780 nM
IC50 (hNav1.3; Table 26, use, […]): 60 nM

CSCC[C@@H]1NC(=O)[C@H](Cc2ccccc2)NC(=O)CNC(=O)[C@H](CC(C)C)NC(=O)[C@@H](NC(=O)[C@@H](N)CC(=O)O)CSSC[C@@H]2NC(=O)[C@@H]3CSSC[C@@H](C(=O)N[C@@H](CCCCN)C(=O)N[C@@H](Cc4ccc(O)cc4)C(=O)N[C@H](C(=O)N[C@@H](Cc4ccccc4)C(N)=O)C(C)C)NC(=O)[C@H](Cc4c[nH]c5ccccc45)NC(=O)[C@H](CCCCN)NC(=O)[C@H](Cc4cnc[nH]4)NC(=O)[C@H]([C@@H](C)O)NC(=O)[C@H](CCCNC(=N)N)NC(=O)[C@H](CO)NC(=O)[C@H](CSSC[C@H](NC(=O)[C@H](CCCCN)NC(=O)[C@H](CCCNC(=N)N)NC1=O)C(=O)N[C@@H](CCCNC(=N)N)C(=O)N1CCC[C@H]1C(=O)N[C@@H](CC(=O)O)C(=O)N[C@@H](CC(N)=O)C(=O)N[C@@H](CC(=O)O)C(=O)N[C@@H](CCCCN)C(=O)N3)NC(=O)[C@H](C(C)C)NC(=O)[C@H](CC(C)C)NC(=O)[C@H](CC(N)=O)NC(=O)[C@@H]1CCCN1C(=O)[C@H](CCCNC(=N)N)NC2=O [compound 66] (H-DCLGFMRKCRPDNDKCCRPNLVCSRTHKWCKYVF-NH2; disulfide 2-17, 9-23, 16-30)
IC50 (hNav1.7): 160 nM
IC50 (hNav1.5; Use): 15200 nM
IC50 (hNav1.3; Use): 110 nM
